For test [1], the system named is subclones of RKO colon adenocarcinoma cells (RKOp27 or RKOp21) arrested by Ponasterone A. The test can be described thus: Alamar Blue cell viability assay, cell cycle specific mode of action: cells arrested by ectopic p27Kip1 induced by Ponasterone A versus proliferating cells. Type of test: cell-based. As to conditions: Homo sapiens, RKO p27 induced (arrested) cells, 10 μM Ponasterone A, 72 hours, value = class bound given in Table A, read-out: −logIC50 RKO p27 induced (arrested) (converted). The essentials:
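Viability of proliferating versus Ponasterone A (10 μM)-arrested RKOp27/RKOp21 cells after 72 h compound exposure at 37° C, in quadruplicate. Read-out is Alamar Blue fluorescence (544/590 nm) normalised to untreated cells = 100%; values as −log IC50.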
On the technique in general: The colour change of resazurin is a common sign of viable cells or microbes.

Test [2] deals with RKO (RKOp27) human colon adenocarcinoma cells. The test can be described thus: Alamar Blue cell viability assay, anti-proliferative/cytotoxic activity on proliferating RKO subclones. Type of test: cell-based. The conditions noted are these: RKOp27, 72 h, RKO p27 uninduced (proliferating) cells, value = class bound given in Table A, read-out: −logIC50 RKO p27 uninduced (proliferating) (converted). Put shortly: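 Alamar Blue fluorescence (ex 544, em 590 nm) after 72 h compound exposure at 37 °C, 5% CO2, normalised to untreated controls set at 100%. Cells were seeded at 5000 per well and dosed 24 h later with serial semi-logarithmic dilutions in 10% FCS DMEM, four replicates each. −log IC50 [mol/l] was derived from concentration-effect curves.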

In the case of `Cn1cnc(CNC(=O)OC2CCc3c(sc(NC(=O)/C=C/c4cccnc4)c3C#N)C2)c1` (stereo not drawn) [Example 53, (1-Methyl-1H-imidazol-4-ylmethyl)-carbamic acid 3-cyano-2-((E)-3-pyridin-3-yl-allanoylamino)-4,5,6,7-tetrahydro-benzo[b]thiophen-6-yl ester], the results for the IC50 in test [1] and in test [2] were at least 100000 nM and 501 to 2000 nM, respectively.

For the compound `Cc1nn(C)cc1CNC(=O)OCC1CCc2c(sc(NC(=O)/C=C/c3cccnc3)c2C#N)C1` (stereo not drawn) [Example 54, (1,3-Dimethyl-1H-pyrazol-4-ylmethyl)-carbamic acid 3-cyano-2-((E)-3-pyridin-3-yl-allanoylamino)-4,5,6,7-tetrahydro-benzo[b]thiophen-6-ylmethyl ester], the IC50 in test [1] is at least 100000 nM; in test [2], at most 501 nM.

In the case of `COC(=O)OC1CCc2c(sc(NC(=O)/C=C/c3cccnc3)c2C#N)C1` (stereo not drawn) [Example 55, Carbonic acid 3-cyano-2-((E)-3-pyridin-3-yl-allanoylamino)-4,5,6,7-tetrahydro-benzo[b]thiophen-6-yl ester methyl ester], the IC50 in test [1] is at least 100000 nM; in test [2], at most 501 nM.

Regarding `Cn1cccc1CNC(=O)OC1CCc2c(sc(NC(=O)/C=C/c3cccnc3)c2C#N)C1` (stereo not drawn) [Example 56, (1-Methyl-1H-pyrrol-2-ylmethyl)-carbamic acid 3-cyano-2-((E)-3-pyridin-3-yl-allanoylamino)-4,5,6,7-tetrahydro-benzo[b]thiophen-6-yl ester], the IC50 in test [1] was at least 100000 nM; in test [2], at most 501 nM.

Consider `Cc1nn(C)cc1CNC(=O)OC1CCc2c(sc(NC(=O)/C=C/c3cccnc3)c2C#N)C1` (stereo not drawn) [Example 57, (1,3-Dimethyl-1H-pyrazol-4-ylmethyl)-carbamic acid 3-cyano-2-((E)-3-pyridin-3-yl-allanoylamino)-4,5,6,7-tetrahydro-benzo[b]thiophen-6-yl ester], for which the IC50 in test [1] is at least 100000 nM; in test [2], at most 501 nM.

Take `Cc1oncc1CNC(=O)OC1CCc2c(sc(NC(=O)/C=C/c3cccnc3)c2C#N)C1` (stereo not drawn) [Example 58, (5-Methyl-isoxazol-4-ylmethyl)-carbamic acid 3-cyano-2-((E)-3-pyridin-3-yl-allanoylamino)-4,5,6,7-tetrahydro-benzo[b]thiophen-6-yl ester]: the IC50 in test [1] is at least 100000 nM; in test [2] it was 501 to 2000 nM.

In the case of `Cc1nocc1CNC(=O)OC1CCc2c(sc(NC(=O)/C=C/c3cccnc3)c2C#N)C1` (stereo not drawn) [Example 59, (3-Methyl-isoxazol-4-ylmethyl)-carbamic acid 3-cyano-2-((E)-3-pyridin-3-yl-allanoylamino)-4,5,6,7-tetrahydro-benzo[b]thiophen-6-yl ester], the values for the IC50 in test [1] and in test [2] were at least 100000 nM and at most 501 nM, respectively.

For the compound `N#Cc1c(NC(=O)/C=C/c2cccnc2)sc2c1CCC(OC(=O)NCc1ccno1)C2` (stereo not drawn) [Example 60, Isoxazol-5-ylmethyl-carbamic acid 3-cyano-2-((E)-3-pyridin-3-yl-allanoylamino)-4,5,6,7-tetrahydro-benzo[b]thiophen-6-yl ester], the IC50 in test [1] is at least 100000 nM; in test [2] it was 501 to 2000 nM.

As for `N#Cc1c(NC(=O)/C=C/c2cccnc2)sc2c1CCC(OC(=O)N1CCOCC1)C2` (stereo not drawn) [Example 61, Morpholine-4-carboxylic acid 3-cyano-2-((E)-3-pyridin-3-yl-allanoylamino)-4,5,6,7-tetrahydro-benzo[b]thiophen-6-yl ester], the IC50 is at least 100000 nM in test [1] and at most 501 nM in test [2].

Regarding `N#Cc1c(NC(=O)/C=C/c2cccnc2)sc2c1CCC(OC(=O)N1CCCC1)C2` (stereo not drawn) [Example 62, Pyrrolidine-1-carboxylic acid 3-cyano-2-((E)-3-pyridin-3-yl-allanoylamino)-4,5,6,7-tetrahydro-benzo[b]thiophen-6-yl ester], the IC50 in test [1] is at least 100000 nM; in test [2] it was at most 501 nM.

`N#Cc1c(NC(=O)/C=C/c2cccnc2)sc2c1CCC(COC(=O)NCC1CCCO1)C2` (stereo not drawn) [Example 63, (Tetrahydro-furan-2-ylmethyl)-carbamic acid 3-cyano-2-((E)-3-pyridin-3-yl-allanoylamino)-4,5,6,7-tetrahydro-benzo[b]thiophen-6-ylmethyl ester]: the IC50 is at least 100000 nM in test [1] and 501 to 2000 nM in test [2].

`Cc1nocc1CNC(=O)OCC1CCc2c(sc(NC(=O)/C=C/c3cccnc3)c2C#N)C1` (stereo not drawn) [Example 64, (3-Methyl-isoxazol-4-ylmethyl)-carbamic acid 3-cyano-2-((E)-3-pyridin-3-yl-allanoylamino)-4,5,6,7-tetrahydro-benzo[b]thiophen-6-ylmethyl ester]: the IC50 in test [1] is at least 100000 nM; in test [2], 501 to 2000 nM.

As to `N#Cc1c(NC(=O)/C=C/c2cccnc2)sc2c1CCC(COC(=O)NCc1nccs1)C2` (stereo not drawn) [Example 65, Thiazol-2-ylmethyl-carbamic acid 3-cyano-2-((E)-3-pyridin-3-yl-allanoylamino)-4,5,6,7-tetrahydro-benzo[b]thiophen-6-ylmethyl ester], the IC50 in test [1] was at least 100000 nM; in test [2], 501 to 2000 nM.

`Cc1nc(CNC(=O)OCC2CCc3c(sc(NC(=O)/C=C/c4cccnc4)c3C#N)C2)cs1` (stereo not drawn) [Example 66, (2-Methyl-thiazol-4-ylmethyl)-carbamic acid 3-cyano-2-((E)-3-pyridin-3-yl-allanoylamino)-4,5,6,7-tetrahydro-benzo[b]thiophen-6-ylmethyl ester]: the IC50 is at least 100000 nM in test [1] and at most 501 nM in test [2].

For the compound `Cc1csc(CNC(=O)OCC2CCc3c(sc(NC(=O)/C=C/c4cccnc4)c3C#N)C2)n1` (stereo not drawn) [Example 67, (4-Methyl-thiazol-2-ylmethyl)-carbamic acid 3-cyano-2-((E)-3-pyridin-3-yl-allanoylamino)-4,5,6,7-tetrahydro-benzo[b]thiophen-6-ylmethyl ester], the figures for the IC50 in test [1] and in test [2] were at least 100000 nM and at most 501 nM, respectively.

For `N#Cc1c(NC(=O)/C=C/c2cccnc2)sc2c1CCC(COC(=O)N1CCCC1)C2` (stereo not drawn) [Example 68, Pyrrolidine-1-carboxylic acid 3-cyano-2-((E)-3-pyridin-3-yl-allanoylamino)-4,5,6,7-tetrahydro-benzo[b]thiophen-6-ylmethyl ester], the IC50 was at least 100000 nM in test [1] and at most 501 nM in test [2].

For `N#Cc1c(NC(=O)/C=C/c2cccnc2)sc2c1CC[C@H](COC(=O)N1CCCC1)C2` [Example 68a, Pyrrolidme-1-carboxyhc acid (S)-3-cyano-2-((E)-3-pyridin-3-yl-allanoylamino)-4,5,6,7-tetrahydro-benzo[b]thiophen-6-ylmethyl ester], the IC50 was at least 100000 nM in test [1] and at most 501 nM in test [2].

As for `N#Cc1c(NC(=O)/C=C/c2cccnc2)sc2c1CC[C@@H](COC(=O)N1CCCC1)C2` [Example 68b, Pyrrolidine-1-carboxylic acid (R)-3-cyano-2-((E)-3-pyridin-3-yl-allanoylamino)-4,5,6,7-tetrahydro-benzo[b]thiophen-6-ylmethyl ester], the figures for the IC50 in test [1] and in test [2] were at least 100000 nM and at most 501 nM, respectively.

`CCn1nccc1CNC(=O)OC1CCc2c(sc(NC(=O)/C=C/c3cccnc3)c2C#N)C1` (stereo not drawn) [Example 69, (2-Ethyl-2H-pyrazol-3-ylmethyl)-carbamic acid 3-cyano-2-((E)-3-pyridin-3-yl-allanoylamino)-4,5,6,7-tetrahydro-benzo[b]thiophen-6-yl ester]: the results for the IC50 in test [1] and in test [2] were at least 100000 nM and at most 501 nM, respectively.

With `N#Cc1c(NC(=O)/C=C/c2cccnc2)sc2c1CCC(OC(=O)NCC1CCCO1)C2` (stereo not drawn) [Example 70, (Tetrahydro-furan-2-ylmethyl)-carbamic acid 3-cyano-2-((E)-3-pyridin-3-yl-allanoylamino)-4,5,6,7-tetrahydro-benzo[b]thiophen-6-yl ester], the IC50 in test [1] was at least 100000 nM; in test [2] it was 501 to 2000 nM.

For `Cc1oncc1CNC(=O)OCC1CCc2c(sc(NC(=O)/C=C/c3cccnc3)c2C#N)C1` (stereo not drawn) [Example 71, (5-Methyl-isoxazol-4-ylmethyl)-carbamic acid 3-cyano-2-((E)-3-pyridin-3-yl-allanoylamino)-4,5,6,7-tetrahydro-benzo[b]thiophen-6-ylmethyl ester], the IC50 in test [1] was at least 100000 nM; in test [2], 501 to 2000 nM.

Turning to `Cc1nnc(CNC(=O)OCC2CCc3c(sc(NC(=O)/C=C/c4cccnc4)c3C#N)C2)o1` (stereo not drawn) [Example 72, (5-Methyl-[1,3,4]oxadiazol-2-ylmethyl)-carbamic acid 3-cyano-2-((E)-3-pyridin-3-yl-allanoylamino)-4,5,6,7-tetrahydro-benzo[b]thiophen-6-ylmethyl ester], the IC50 in test [1] is at least 100000 nM; in test [2], at most 501 nM.

On to `N#Cc1c(NC(=O)/C=C/c2cccnc2)sc2c1CCC(COC(=O)N1CC(O)C1)C2` (stereo not drawn) [Example 73, 3-Hydroxy-azetidine-1-carboxylic acid 3-cyano-2-((E)-3-pyridin-3-yl-allanoylamino)-4,5,6,7-tetrahydro-benzo[b]thiophen-6-ylmethyl ester], for which the IC50 is at least 100000 nM in test [1] and at most 501 nM in test [2].

For `N#Cc1c(NC(=O)/C=C/c2cccnc2)sc2c1CC[C@H](COC(=O)N1CC(O)C1)C2` [Example 73a, 3-Hydroxy-azetidine-1 - carboxylic acid (S)-3-cyano-2-((E)-3-pyridin-3-yl-allanoylamino)-4,5,6,7-tetrahydro-benzo[b]thiophen-6-ylmethyl ester], the IC50 was at least 100000 nM in test [1] and at most 501 nM in test [2].

The record behind these values is US20110044938A1 (NYCOMED GMBH, priority 2006, published 2011).
